Laboratory results as given in patent US20240287033A1, “DEGRADERS OF TISSUE TRANSGLUTAMINASE 2 (TG2)” (Northwestern University, priority 2023, published 2024).
Entries after “also recorded” stand apart in the source; their conditions may differ. Read-outs that look alike come from different tables or passages of the source.

Legend:
SKOV3 cells [1] = test: Transwell migration assay, SKOV3; format: cell-based
Procedure: (§1) For the scratch assay, confluent 6-well plates were scratched with a pipette tip, washed and treated with compounds or vehicle. The plate was photographed at set time points and the area of wound closure was quantified with ImageJ. Cell migration was assessed by using Transwell inserts (8 μm pore size, Merck-Millipore, Watford, UK). Briefly, 15,000 cells were seeded in the upper chambers of trans-wells in serum-free media containing compounds or control, while media containing 10% serum was added to the lower chamber. After 18 hours, cells invaded through the transwells were fixed with warm 4% PFA for 20 min at room temperature and stained with crystal violet for 3 min. The membranes were removed, mounted on cover slides and cells were counted using a microscope at 40× magnification.

OVCAR5 cells [2] = test: Cell viability assay (CCK-8), OVCAR5; format: cell-based; settings: 0.1-30 μM, 5 days
Procedure: (§2) The numbers of viable cells were quantified by using the CCK-8 assay (ApexBio) following the manufacturer's directions. Absorbance was measured by a spectrophotometer at 495 nm and used estimate the viability of the cells.

OVCAR5 cells [3] = test: Transwell migration assay, OVCAR5; format: cell-based
Procedure: as §1

full-length TG2 [4] = molecular target: T1, full-length TG2 (Homo sapiens, UniProt P21980); test: Isothermal titration calorimetry (ITC) binding to TG2; settings: for decrease in affinity relative to the parental compound MT4: ITC KD ratio versus MT4; for Kd: titration into TG2 at 30° C., PBS with 1% DMSO, read-out: equilibrium dissociation constant KD (ITC)
T1 sequence (P21980 1-687): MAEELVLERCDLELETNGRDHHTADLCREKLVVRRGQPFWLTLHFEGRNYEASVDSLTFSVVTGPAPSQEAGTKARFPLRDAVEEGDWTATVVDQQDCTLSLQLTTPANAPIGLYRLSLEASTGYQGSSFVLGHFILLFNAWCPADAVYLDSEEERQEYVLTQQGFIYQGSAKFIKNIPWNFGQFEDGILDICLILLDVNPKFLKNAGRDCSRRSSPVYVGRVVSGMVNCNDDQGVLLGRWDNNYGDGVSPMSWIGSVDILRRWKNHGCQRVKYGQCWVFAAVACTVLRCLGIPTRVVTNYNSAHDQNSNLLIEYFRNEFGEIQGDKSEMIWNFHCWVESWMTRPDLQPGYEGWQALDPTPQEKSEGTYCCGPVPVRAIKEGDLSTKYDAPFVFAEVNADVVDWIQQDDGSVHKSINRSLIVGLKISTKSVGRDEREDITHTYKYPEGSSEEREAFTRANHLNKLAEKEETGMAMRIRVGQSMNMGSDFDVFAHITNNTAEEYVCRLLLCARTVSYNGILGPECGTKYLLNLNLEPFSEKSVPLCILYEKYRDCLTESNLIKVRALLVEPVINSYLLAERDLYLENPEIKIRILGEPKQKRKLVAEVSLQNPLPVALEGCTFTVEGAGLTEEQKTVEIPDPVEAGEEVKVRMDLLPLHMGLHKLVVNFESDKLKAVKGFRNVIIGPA
Procedure: Sample Preparation. Protein dilutions in PBS with 1% DMSO were prepared from stock solutions of […] in PBS. The protein dilutions were initially equilibrated on ice for 5 min, then for 20 min at 30° C. The solutions were filtered using a […] Millipore centrifugal device just prior to insertion in the ITC cell. The solubility of the protein solutions was confirmed independently by DLS (data not shown), and the concentration of each solution (after filtration) was measured with a NanoDrop 2000 Instrument.
All compound dilutions were made in PBS, and the final DMSO concentration in each solution was carefully adjusted to 1%.
ITC Experiments. All ITC experiments were performed on an Affinity Low Volume instrument (Waters/TA Instruments) equipped with a fixed 198 μL gold cell. In each experiment, 320 μL of protein solution was loaded into the ITC cell, and 200 μL of the corresponding compound was in the syringe. The data were acquired using ITCRun data acquisition software. The incremental ITC experiments consisted of multiple 2 μL injections at 50-350-second intervals with a stirring speed of 100 revolutions per minute (rpm). The Auto Equilibrate function allowed for the equilibration of the baseline to a peak-to-peak standard deviation of less than 12 nW. For each compound, separate control experiments were performed to evaluate the heat of dilution. The control experiments were set with identical parameters but performed with reaction buffer instead of protein in the ITC cell and consisted of fewer (6-10) injections.
Data Analysis. ITC data were analyzed with Nano Analyze Software (Waters/TA Instruments) using the “independent sites” model after correction for heats of dilution.

SKOV3 cells [5] = test: Solid phase adhesion assay on fibronectin, SKOV3; format: cell-based
Procedure: (§3) Briefly, wells were coated with 10 μg/ml fibronectin diluted in PBS for one hour. 30,000 cells pretreated with compounds for 6 hours were seeded and allowed to attach for 30 minutes. After washing with PBS to remove unattached cells, cells adhering to coated wells were quantified by using the CCK-8 assay (ApexBio), following the manufacturer's protocol. Relative absorbance measured at 496 nm was used to estimate the relative number of the cell attached to fibronectin coated wells.

Solubility observations = format: physicochemical
SKOV3 cells [6] = test: Cell viability assay (CCK-8), SKOV3; format: cell-based; settings: 0.1-30 μM, 5 days
Procedure: as §2

OVCAR5 cells [7] = test: Solid phase adhesion assay on fibronectin, OVCAR5; format: cell-based
Procedure: as §3

TG2 [8] = molecular target: T2, TG2 (Homo sapiens, UniProt P21980); test: Western blot analysis of TG2 degradation in SKOV3 cells; format: cell-based; settings: for TG2 degradation with VHL ligand as competitive inhibitor: 10 μM compound 6 hrs, 10 μM VHL ligand; for TG2 degradation (western blot): 6 hours, up to 10 μM; for TG2 levels after longer treatment (western blot): 24 hours, single dosing; for TG2 levels at 24 hours after repeated dosing: dosed every 6-8 hours over 24 hours, 1 or 10 μM; for time of maximal TG2 degradation: higher concentrations (10 and 30 μM)
T2 construct: tested in multiple ovarian cancer cell lines that express TG2 for their ability to degrade the protein; endogenous in cells; host or cells: OVCAR5 and SKOV3 ovarian cancer cells
T2 sequence (P21980 1-687): T1 sequence (P21980 1-687)
Procedure: (§4) SKOV3 cells were purchased from ATCC. OVCAR5 cells were obtained from Dr. Marcus Peter at Northwestern University. Cells were maintained at 37° C. in an environment of 5% CO2 and 100% humidity. The media used for culturing the cell lines are included in Table 1. Cells lines used in all experiments were at low-passages and were confirmed to be pathogen and mycoplasma-free by Charles River Animal Diagnostic Services. Cell lines were authenticated by IDEXX BioAnalytics with short tandem repeat (STR) profiling. MG132 was obtained from SelleckChem. Anti-TG2 antibody (cat #: MAB3839-I-100UG) was purchased from Millipore Sigma, GAPDH antibody (cat #: H86504M) was purchased from Meridian Bioscience.
(§5) Briefly, SKOV3 and OVCAR5 cells were seeded on 6 cm dishes and treated with different concentrations of compounds at different time points. Proteins were extracted using RIPA buffer and quantified using the Bradford assay. After gel electrophoresis and transfer, PDVF membranes were blocked with TBS-Tween 5% BSA for one hour and incubated with primary antibodies 20 (1:1000 dilution, overnight at 4° C.). After incubation with the secondary antibody (anti rabbit/mouse-horseradish peroxidase 1:1000 dilution) for 1 h at room temperature, signal was developed using SuperSignal West Pico PLUS Chemiluminescent Substrate (Thermo Fisher Scientific cat #: 34580) and captured with an ImageQuant LAS 4000 machine. To detect additional proteins, membranes were treated with Restore Western Blot Stripping Buffer (Thermo Fisher Scientific cat #: 21059), blocked, and then incubated with primary antibody.

SKOV3 cells [9] = test: Wound-healing (scratch) assay, SKOV3; format: cell-based
Procedure: as §1

TG2 [10] = molecular target: T2, TG2; test: Western blot analysis of TG2 degradation in OVCAR5 cells; format: cell-based; settings: for TG2 degradation with VHL ligand as competitive inhibitor: 10 μM compound 6 hrs, 10 μM VHL ligand; for TG2 degradation (western blot): 6 hours, 0.1-10 μM; for TG2 levels after longer treatment (western blot): 24 hours, single dosing; for TG2 levels at 24 hours after repeated dosing: dosed every 6-8 hours over 24 hours, 1 or 10 μM
Procedure: as §4, §5

OVCAR5 cells [11] = test: Wound-healing (scratch) assay, OVCAR5; format: cell-based
Procedure: as §1

full-length TG2 [12] = molecular target: T1, full-length TG2; settings: literature value (ref. 41); read-out: KD of MT4 to TG2, previously reported result; cited from earlier work

## Cc1cc(N(C)CCOCCC(=O)N[C@H](C(=O)N2C[C@H](O)C[C@H]2C(=O)NCc2ccc(-c3scnc3C)cc2)C(C)(C)C)nc(Nc2ccc(NC(=O)Cc3ccccc3)cc2)n1 [Compound 7, (2S,4R)-1-((S)-3,3-dimethyl-2-(3-(2-(methyl(6-methyl-2-((4-(2-phenylacetamido)phenyl)amino)pyrimidin-4-yl)amino)ethoxy)propanamido)butanoyl)-4-hydroxy-N-(4-(4-methylthiazol-5-yl)benzyl)pyrrolidine-2-carboxamide]
SKOV3 cells [1]
  cell migration, transwell migration assay: similarly inhibited the migration
OVCAR5 cells [2]
  cell death / viability: No significant cell death; also recorded: no cell death was observed
OVCAR5 cells [3]
  cell migration, transwell migration assay: potently inhibited the migration
full-length TG2 [4]
  decrease in affinity relative to the parental compound MT4: > 12.8 fold
  Kd: > 100 µM
SKOV3 cells [5]
  adhesion of cells to fibronectin: significantly reduced the adhesion
Solubility observations
  solubility (in words): poorer solubility than compound 11
SKOV3 cells [6]
  cell death / viability: No significant cell death; also recorded: no cell death was observed
OVCAR5 cells [7]
  adhesion of cells to fibronectin: significantly reduced the adhesion
TG2 [8]
  TG2 degradation with VHL ligand as competitive inhibitor: prevented degradation of TG2; also recorded: but not when combined with VHL ligand
  TG2 degradation (western blot): significantly reduced the level of TG2; also recorded: Degradation of TG2 was observed
  TG2 levels after longer treatment (western blot): did not induce reduction in TG2 levels
  TG2 levels at 24 hours after repeated dosing: persistent and dose-dependent decreased TG2 levels
  time of maximal TG2 degradation: 6 h
SKOV3 cells [9]
  cell migration, wound-healing assay: similarly inhibited the migration
TG2 [10]
  TG2 degradation with VHL ligand as competitive inhibitor: prevented degradation of TG2
  TG2 degradation (western blot): significantly reduced the level of TG2; also recorded: Degradation of TG2 was observed
  TG2 levels after longer treatment (western blot): did not induce reduction in TG2 levels
  TG2 levels at 24 hours after repeated dosing: persistent and dose-dependent decreased TG2 levels
OVCAR5 cells [11]
  cell migration, wound-healing assay: potently inhibited the migration

## Cc1cc(N(C)C)nc(Nc2ccc(NC(=O)Cc3ccccc3)cc2)n1 [MT4, reference compound]
full-length TG2 [4]
  Kd: 7.8 µM
Solubility observations
  solubility (in words): lower solubility than the PROTAC compounds
full-length TG2 [12]
  Kd: 5.1 µM

## Cc1cc(N(C)CCOCCOCCOCCOCCOCCC(=O)N[C@H](C(=O)N2C[C@H](O)C[C@H]2C(=O)NCc2ccc(-c3scnc3C)cc2)C(C)(C)C)nc(Nc2ccc(NC(=O)Cc3ccccc3)cc2)n1 [Compound 11, (2S,4R)-1-((S)-22-(tert-buty)-2-(6-methyl-2-((4-(2-phenylacetamido)phenyl)amino)pyrimidin-4-yl)-20-oxo-5,8,11,14,17-pentaoxa-2,21-diazatricosan-23-oyl)-4-hydroxy-N-(4-(4-methylthiazol-5-yl)benzyl)pyrrolidine-2-carboxamide]
SKOV3 cells [1]
  cell migration, transwell migration assay: similarly inhibited the migration
OVCAR5 cells [2]
  cell death / viability: No significant cell death; also recorded: no cell death was observed
OVCAR5 cells [3]
  cell migration, transwell migration assay: potently inhibited the migration
full-length TG2 [4]
  decrease in affinity relative to the parental compound MT4: 8.8 fold
  Kd: 68.9 µM
SKOV3 cells [5]
  adhesion of cells to fibronectin: significantly reduced the adhesion
SKOV3 cells [6]
  cell death / viability: No significant cell death; also recorded: no cell death was observed
OVCAR5 cells [7]
  adhesion of cells to fibronectin: significantly reduced the adhesion
TG2 [8]
  TG2 degradation with VHL ligand as competitive inhibitor: prevented degradation of TG2; also recorded: but not when combined with VHL ligand
  TG2 degradation (western blot): significantly reduced the level of TG2; also recorded: Degradation of TG2 was observed
  TG2 levels after longer treatment (western blot): did not induce reduction in TG2 levels
  TG2 levels at 24 hours after repeated dosing: persistent and dose-dependent decreased TG2 levels
  time of maximal TG2 degradation: 6 h
SKOV3 cells [9]
  cell migration, wound-healing assay: similarly inhibited the migration
TG2 [10]
  TG2 degradation with VHL ligand as competitive inhibitor: prevented degradation of TG2
  TG2 degradation (western blot): significantly reduced the level of TG2; also recorded: Degradation of TG2 was observed
  TG2 levels after longer treatment (western blot): did not induce reduction in TG2 levels
  TG2 levels at 24 hours after repeated dosing: persistent and dose-dependent decreased TG2 levels
OVCAR5 cells [11]
  cell migration, wound-healing assay: potently inhibited the migration
